Reference: patent EP1018560A1, “VECTORS FOR TREATING CANCER” (Dnavec Research Inc., priority 1997, dated 1999)
Where a name gives a salt, the structure may show the parent alone. Starred links: 1 amine or outer side, 2 acyl side, 3 side chain; linkers in the order of their positions; H or OH if unused. Positions of bridges follow the written chain, without caps; N, C: chain ends. Non-standard residues stand in square brackets, D forms with d. Residues, ends and D or L forms follow the SMILES beside them. Chains are numbered I, II in the order given. Actinocin(9to1) = Cc1c2oc3c(C)ccc(C(=O)[*:1])c3nc-2c(C(=O)[*:2])c(N)c1=O; NMeV = CN[C@H](C(=O)O)C(C)C; Sar = CNCC(=O)O

Tests used:
U2OS cells (p53+) = assay: Potentiation of p53-dependent suppression of expression by antitumor agents (β-galactosidase activity); format: cell-based
Method: U2OS cells (p53+) that had been placed into six-well plates (6 x 10^5 cells per well) on the previous day were infected with AxYp53RECre at the indicated MOIs. Various compounds (actinomycin D, doxorubicin hydrochloride, etoposide, and nocodazole, all from Sigma, USA) were then added at the indicated concentrations. On the next day, the compounds were removed, and AxCAYLLZ was infected at the indicated MOIs. Six days later, crude extracts of infected cells were prepared and assayed for β-galactosidase activity similarly as described in 3-1). […]

[1] = system: p53-Deficient Saos2 cells; assay: Cell death specific to p53-deficient cells (ganciclovir sensitivity, viable cell number); format: cell-based, human; settings: combination of AxYp53RECre, AxCAYLTK, and ganciclovir; Saos2 versus U20S cells
Method: p53-Deficient Saos2 cells and p53-expressing U20S cells were inoculated then cultured in the presence of 50 ng/ml nocodazole (Sigma, USA) on the next day. Nocodazole was removed on the following day, and the cells were infected with AxYp53RECre at the indicated MOIs. On the day after that, the cells were further infected with AxCAYLTK at the indicated MOIs. Three days later, infected cells were placed into 96-well plates at a quantity of 2000 cells/well, and various concentrations of ganciclovir (Nippon Roche) were added thereto. Seven days later, the number of viable cells was counted using a Cell Titer 96 AQueous Non-Radioactive Cell Proliferation Assay (Promega, USA). […] In this figure, "% viable cell number" refers to the relative number of cells compared to the number of cells in the absence of ganciclovir taken as 100. Mean values of five samples are shown. Error bars show standard deviations.

Cc1c2oc3c(C)ccc(C(=O)N[C@@H]4C(=O)N[C@H](C(C)C)C(=O)N5CCC[C@H]5C(=O)N(C)CC(=O)N(C)[C@@H](C(C)C)C(=O)O[C@@H]4C)c3nc-2c(C(=O)N[C@@H]2C(=O)N[C@H](C(C)C)C(=O)N3CCC[C@H]3C(=O)N(C)CC(=O)N(C)[C@@H](C(C)C)C(=O)O[C@@H]2C)c(N)c1=O [actinomycin D] (I: T[dV]P[Sar][NMeV] / II: T[dV]P[Sar][NMeV]; ester I:1-I:C, II:1-II:C; linker I:N-II:N via Actinocin(9to1))
Remaining β-galactosidase activity (U2OS cells (p53+); AxCAYLLS MOI 10, pAxYp53RECre MOI 0, 10 ng/ml actinomycin D (reference)): 100% | Remaining β-galactosidase activity (U2OS cells (p53+); AxCAYLLS MOI 10, pAxYp53RECre MOI 30, 10 ng/ml actinomycin D): 2.4%

COC(=O)Nc1nc2ccc(C(=O)c3cccs3)cc2[nH]1 [nocodazole]
Remaining β-galactosidase activity (U2OS cells (p53+); AxCAYLLS MOI 10, pAxYp53RECre MOI 0, 50 ng/ml nocodazole (reference)): 100% | Remaining β-galactosidase activity (U2OS cells (p53+); AxCAYLLS MOI 10, pAxYp53RECre MOI 10, 50 ng/ml nocodazole): 31%

COc1cc([C@@H]2c3cc4c(cc3[C@@H](O[C@@H]3O[C@@H]5CO[C@@H](C)O[C@H]5[C@H](O)[C@H]3O)[C@H]3COC(=O)[C@H]23)OCO4)cc(OC)c1O [etoposide]
Remaining β-galactosidase activity (U2OS cells (p53+); AxCAYLLS MOI 10, pAxYp53RECre MOI 0, 1000 ng/ml etoposide (reference)): 100% | Remaining β-galactosidase activity (U2OS cells (p53+); AxCAYLLS MOI 10, pAxYp53RECre MOI 30, 1000 ng/ml etoposide): 0.6%

Nc1nc(O)c2ncn(COC(CO)CO)c2n1 [ganciclovir]
cell death [1]: caused cell death specific to p53-deficient cells

COc1cccc2c1C(=O)c1c(O)c3c(c(O)c1C2=O)C[C@@](O)(C(=O)CO)C[C@@H]3O[C@H]1C[C@H](N)[C@H](O)[C@H](C)O1 [doxorubicin, doxorubicin hydrochloride]
Remaining β-galactosidase activity (U2OS cells (p53+); AxCAYLLS MOI 10, pAxYp53RECre MOI 0, 100 ng/ml doxorubicin (reference)): 100% | Remaining β-galactosidase activity (U2OS cells (p53+); AxCAYLLS MOI 10, pAxYp53RECre MOI 30, 100 ng/ml doxorubicin): 0.5%
